Measured values: PubChem BioAssay AID1963427 (Molecular Pharmacology Branch, DTP, NCI, 2024)

Tested on: 317291-083-R-J1-PDC complex spheroid growth
Assay: Anticancer human tumor 317291-083-R-J1-PDC patient-derived soft tissue sarcoma cell line growth inhibition [Asc]
Conditions: for IC50: curve of first compound; for viability, T/C: stronger effect = lower value
Method in brief: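 Tumor cells were grown as complex spheroids with human endothelial cells (HUVEC) and human mesenchymal stem cells as stroma. Agents were tested alone and in combination, in half-log steps down from the clinical Cmax, or from 10 microM where Cmax was unknown.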
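Also: compound exposure lasted seven days after spheroids formed for three days.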
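For viability, T/C in this document: 100% = DMSO vehicle control wells.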

O=C(c1cc(Cc2n[nH]c(=O)c3ccccc23)ccc1F)N1CCN(C(=O)C2CC2)CC1 + CCN1C(C(=O)NC23CCC(C(=O)O)(CC2)CC3)C(c2cccc(Cl)c2F)C2(C(=O)Nc3cc(Cl)ccc32)C12CCCCC2
IC50 (second compound 0.00949 µM): 9.4 µM
IC50 (second compound 0.03 µM): > 10 µM
IC50 (second compound 0.0949 µM): > 10 µM
IC50 (second compound 0.3 µM): 9.47 µM
IC50 (second compound 0.949 µM): > 10 µM
IC50 (second compound 3 µM): 7.68 µM
viability, T/C (second compound 0.00949 µM, first compound 0.0316 µM): 111%
viability, T/C (second compound 0.00949 µM, first compound 0.1 µM): 108%
viability, T/C (second compound 0.00949 µM, first compound 0.316 µM): 108%
viability, T/C (second compound 0.00949 µM, first compound 1 µM): 86.9%
viability, T/C (second compound 0.00949 µM, first compound 3.16 µM): 92.7%
viability, T/C (second compound 0.00949 µM, first compound 10 µM): 46.2%
viability, T/C (second compound 0.03 µM, first compound 0.0316 µM): 110%
viability, T/C (second compound 0.03 µM, first compound 0.1 µM): 101%
viability, T/C (second compound 0.03 µM, first compound 0.316 µM): 102%
viability, T/C (second compound 0.03 µM, first compound 1 µM): 104%
viability, T/C (second compound 0.03 µM, first compound 3.16 µM): 81.7%
viability, T/C (second compound 0.03 µM, first compound 10 µM): 54.6%
viability, T/C (second compound 0.0949 µM, first compound 0.0316 µM): 101%
viability, T/C (second compound 0.0949 µM, first compound 0.1 µM): 105%
viability, T/C (second compound 0.0949 µM, first compound 0.316 µM): 92.1%
viability, T/C (second compound 0.0949 µM, first compound 1 µM): 104%
viability, T/C (second compound 0.0949 µM, first compound 3.16 µM): 77.2%
viability, T/C (second compound 0.0949 µM, first compound 10 µM): 53%
viability, T/C (second compound 0.3 µM, first compound 0.0316 µM): 116%
viability, T/C (second compound 0.3 µM, first compound 0.1 µM): 114%
viability, T/C (second compound 0.3 µM, first compound 0.316 µM): 102%
viability, T/C (second compound 0.3 µM, first compound 1 µM): 91.2%
viability, T/C (second compound 0.3 µM, first compound 3.16 µM): 93.2%
viability, T/C (second compound 0.3 µM, first compound 10 µM): 46.2%
viability, T/C (second compound 0.949 µM, first compound 0.0316 µM): 107%
viability, T/C (second compound 0.949 µM, first compound 0.1 µM): 109%
viability, T/C (second compound 0.949 µM, first compound 0.316 µM): 107%
viability, T/C (second compound 0.949 µM, first compound 1 µM): 92.4%
viability, T/C (second compound 0.949 µM, first compound 3.16 µM): 88.9%
viability, T/C (second compound 0.949 µM, first compound 10 µM): 51.9%
viability, T/C (second compound 3 µM, first compound 0.0316 µM): 88.2%
viability, T/C (second compound 3 µM, first compound 0.1 µM): 85.3%
viability, T/C (second compound 3 µM, first compound 0.316 µM): 81.1%
viability, T/C (second compound 3 µM, first compound 1 µM): 83.3%
viability, T/C (second compound 3 µM, first compound 3.16 µM): 77.1%
viability, T/C (second compound 3 µM, first compound 10 µM): 41.8%

NC1CCC(NC2CC2c2ccccc2)CC1 (centres undefined) + CNC(C)C(=O)NC1CN(S(=O)(=O)c2cccc(S(=O)(=O)N3CCC4CCC(C(=O)NC(c5ccccc5)c5ccccc5)N4C(=O)C(NC(=O)C(C)NC)C3)c2)CCC2CCC(C(=O)NC(c3ccccc3)c3ccccc3)N2C1=O
IC50 (second compound 0.00316 µM): > 0.1 µM
IC50 (second compound 0.01 µM): > 0.1 µM
IC50 (second compound 0.0316 µM): > 0.1 µM
IC50 (second compound 0.1 µM): > 0.1 µM
IC50 (second compound 0.316 µM): < 0.000316 µM
IC50 (second compound 1 µM): < 0.000316 µM
viability, T/C (second compound 0.00316 µM, first compound 0.000316 µM): 83.2%
viability, T/C (second compound 0.00316 µM, first compound 0.001 µM): 88.8%
viability, T/C (second compound 0.00316 µM, first compound 0.00316 µM): 84.5%
viability, T/C (second compound 0.00316 µM, first compound 0.01 µM): 96%
viability, T/C (second compound 0.00316 µM, first compound 0.0316 µM): 80.5%
viability, T/C (second compound 0.00316 µM, first compound 0.1 µM): 74.5%
viability, T/C (second compound 0.01 µM, first compound 0.000316 µM): 93%
viability, T/C (second compound 0.01 µM, first compound 0.001 µM): 80.6%
viability, T/C (second compound 0.01 µM, first compound 0.00316 µM): 86.9%
viability, T/C (second compound 0.01 µM, first compound 0.01 µM): 93.7%
viability, T/C (second compound 0.01 µM, first compound 0.0316 µM): 82.3%
viability, T/C (second compound 0.01 µM, first compound 0.1 µM): 76.7%
viability, T/C (second compound 0.0316 µM, first compound 0.000316 µM): 102%
viability, T/C (second compound 0.0316 µM, first compound 0.001 µM): 73.7%
viability, T/C (second compound 0.0316 µM, first compound 0.00316 µM): 77%
viability, T/C (second compound 0.0316 µM, first compound 0.01 µM): 70.1%
viability, T/C (second compound 0.0316 µM, first compound 0.0316 µM): 89.5%
viability, T/C (second compound 0.0316 µM, first compound 0.1 µM): 57.4%
viability, T/C (second compound 0.1 µM, first compound 0.000316 µM): 67.5%
viability, T/C (second compound 0.1 µM, first compound 0.001 µM): 52%
viability, T/C (second compound 0.1 µM, first compound 0.00316 µM): 69.1%
viability, T/C (second compound 0.1 µM, first compound 0.01 µM): 49%
viability, T/C (second compound 0.1 µM, first compound 0.0316 µM): 69.3%
viability, T/C (second compound 0.1 µM, first compound 0.1 µM): 64.7%
viability, T/C (second compound 0.316 µM, first compound 0.000316 µM): 43.2%
viability, T/C (second compound 0.316 µM, first compound 0.001 µM): 56.5%
viability, T/C (second compound 0.316 µM, first compound 0.00316 µM): 48%
viability, T/C (second compound 0.316 µM, first compound 0.01 µM): 54%
viability, T/C (second compound 0.316 µM, first compound 0.0316 µM): 61.9%
viability, T/C (second compound 0.316 µM, first compound 0.1 µM): 44%
viability, T/C (second compound 1 µM, first compound 0.000316 µM): 37.5%
viability, T/C (second compound 1 µM, first compound 0.001 µM): 39.7%
viability, T/C (second compound 1 µM, first compound 0.00316 µM): 34.5%
viability, T/C (second compound 1 µM, first compound 0.01 µM): 36.8%
viability, T/C (second compound 1 µM, first compound 0.0316 µM): 46.1%
viability, T/C (second compound 1 µM, first compound 0.1 µM): 36.8%
